Where a name gives a salt, the structure may show the parent alone.
Molecular target: T1, MDR (Rattus norvegicus, UniProt P16257)
T1 construct: Crude mitochondria fractions prepared from rat cerebral cortex were used as a receptor sample; from tissue; host or cells: rat cerebral cortex, crude mitochondria fraction
Assay: MDR receptor binding assay ([3H]PK11195 displacement)
Conditions: 50% inhibition of [3H]PK11195 (2 nM) binding; crude mitochondria fraction from rat cerebral cortex; 4° C., 90 minutes
Description: Experiment [MDR Receptor Binding Assay]
Crude mitochondria fractions prepared from rat cerebral cortex were used as a receptor sample, and [^3H]PK11195 was used as a [^3H]-labeled ligand.
A binding assay using the [^3H]-labeled ligand was carried out according to the following method as described in Journal of Pharmacology and Experimental Therapeutics, 262, 971(1992).
Preparation of Receptor Sample: Rat cerebral cortex was homogenized using a Teflon-coated homogenizer in a 10 mM HEPES buffer (pH 7.4) containing 0.32 M sucrose in ten volumes of the wet weight. The homogenate was centrifuged at 900×g for 10 minutes, and the resulting supernatant was centrifuged at 9,000×g for 10 minutes. The precipitate was suspended in a HEPES buffer to give a protein concentration of 1 mg/ml, and centrifuged at 12,000×g for 10 minutes. The resulting precipitate was suspended in a 50 mM HEPES buffer (pH 7.4) to give a crude mitochondria fraction.
MDR Binding Assay: Mitochondria sample (1.0 mg protein/ml), [^3H]PK11195 (2 nM) and the test drug were reacted at 4° C. for 90 minutes. After completion of the reaction, the reaction mixture was filtered with suction through a glass filter (GF/B) treated with 0.3% polyethyleneimine, and the radioactivity on the filter was measured by a liquid scintillation spectrometer.
The binding at the reaction in the presence of 10 μM PK11195 was defined as non-specific binding of [3H]PK11195, and the difference between total binding and non-specific binding was defined as specific binding.

COc1cccc(CN(C(C)=O)c2ccccc2Oc2ccccc2)c1 [Compound 001]
IC50: 1.38 nM

COc1ccc(CN(C(C)=O)c2ccccc2Oc2ccccc2)cc1 [Compound 002]
IC50: 0.658 nM

CCOc1ccccc1CN(C(C)=O)c1ccccc1Oc1ccccc1 [Compound 003]
IC50: 0.123 nM

CCOc1ccccc1CN(C(C)=O)c1ccc(Cl)cc1Oc1ccccc1 [Compound 004]
IC50: 0.791 nM

CCCOc1ccccc1CN(C(C)=O)c1ccccc1Oc1ccccc1 [Compound 005]
IC50: 0.118 nM

CCCOc1ccccc1CN(C(C)=O)c1ccc(Cl)cc1Oc1ccccc1 [Compound 006]
IC50: 0.677 nM

CC(=O)N(Cc1ccccc1OC(C)C)c1ccccc1Oc1ccccc1 [Compound 007, N-Acetyl-N-(2-isopropoxybenzyl)-2-phenoxyaniline]
IC50: 0.0977 nM

CC(=O)N(Cc1ccccc1OC(C)C)c1ccc(Cl)cc1Oc1ccccc1 [Compound 008]
IC50: 0.87 nM

CC(=O)N(Cc1ccccc1OCC(C)C)c1ccccc1Oc1ccccc1 [Compound 009]
IC50: 0.112 nM

CCCCCOc1ccccc1CN(C(C)=O)c1ccccc1Oc1ccccc1 [Compound 010]
IC50: 0.149 nM

CC(=O)N(Cc1ccccc1OCCC(C)C)c1ccccc1Oc1ccccc1 [Compound 011]
IC50: 0.163 nM

COc1ccccc1CCN(C(C)=O)c1ccccc1Oc1ccccc1 [Compound 012, N-Acetyl-N-[2-(2-methoxyphenyl)ethyl]-2-phenoxyaniline]
IC50: 0.453 nM

COc1ccccc1N(C(C)=O)c1ccccc1Oc1ccccc1 [Compound 013, N-Acetyl-N-(2-methoxyphenyl)-2-phenoxyaniline]
IC50: 9.77 nM

COc1ccccc1C(C)N(C(C)=O)c1ccccc1Oc1ccccc1 (stereo not shown) [Compound 014]
IC50: 2.21 nM

COc1cccc(CN(C(C)=O)c2ccccc2Oc2ccccc2)c1OC [Compound 015]
IC50: 0.285 nM

COc1ccc(CN(C(C)=O)c2ccccc2Oc2ccccc2)c(OC)c1 [Compound 016, N-Acetyl-N-(2,4-dimethoxybenzyl)-2-phenoxyaniline]
IC50: 0.722 nM

COc1ccc(OC)c(CN(C(C)=O)c2ccccc2Oc2ccccc2)c1 [Compound 017]
IC50: 0.085 nM

COc1ccc(OC)c(CN(C(C)=O)c2cc(C)ccc2Oc2ccccc2)c1 [Compound 019]
IC50: 0.196 nM

COc1ccc(OC)c(CN(C(C)=O)c2cc(F)ccc2Oc2ccccc2)c1 [Compound 021]
IC50: 0.31 nM

COc1ccc(OC)c(CN(C(C)=O)c2ccc(Cl)cc2Oc2ccccc2)c1 [Compound 022]
IC50: 0.179 nM

COc1ccc(OC)c(CN(C(C)=O)c2cc(Cl)ccc2Oc2ccccc2)c1 [Compound 023]
IC50: 0.424 nM

COc1cc(CN(C(C)=O)c2ccccc2Oc2ccccc2)cc(OC)c1 [Compound 025]
IC50: 0.26 nM

CC(=O)N(Cc1ccccc1O)c1ccccc1Oc1ccccc1 [Compound 027, N-acetyl-N-(2-hydroxybenzyl)-2-phenoxyaniline]
IC50: 3.2 nM

CC(=O)Oc1ccccc1CN(C(C)=O)c1ccccc1Oc1ccccc1 [Compound 028, N-acetyl-N-(2-acetyloxybenzyl)-2-phenoxyaniline]
IC50: 3.2 nM

CC(=O)N(Cc1ccccc1Cl)c1ccccc1Oc1ccccc1 [Compound 029, N-Acetyl-N-(2-chlorobenzyl)-2-phenoxyaniline]
IC50: 0.486 nM

CC(=O)N(Cc1cccc(Cl)c1)c1ccccc1Oc1ccccc1 [Compound 030]
IC50: 1.96 nM

CC(=O)N(Cc1ccc(Cl)cc1)c1ccccc1Oc1ccccc1 [Compound 031]
IC50: 1.23 nM

CC(=O)N(Cc1ccccc1F)c1ccccc1Oc1ccccc1 [Compound 032]
IC50: 6.73 nM

CC(=O)N(Cc1ccccc1Br)c1ccccc1Oc1ccccc1 [Compound 033]
IC50: 3.51 nM

CSc1ccccc1CN(C(C)=O)c1ccccc1Oc1ccccc1 [Compound 034]
IC50: 0.179 nM

COC(=O)c1ccccc1CN(C(C)=O)c1ccccc1Oc1ccccc1 [Compound 040, N-acetyl-N-(2-methoxycarbonylbenzyl)-2-phenoxyaniline]
IC50: 0.0643 nM

CC(=O)N(Cc1ccccc1C=O)c1ccccc1Oc1ccccc1 [Compound 046, N-acetyl-N-(2-formylbenzyl)-2-phenoxyaniline]
IC50: 0.376 nM

CC(=O)c1ccccc1CN(C(C)=O)c1ccccc1Oc1ccccc1 [Compound 047, N-Acetyl-N-(2-acetylbenzyl)-2-phenoxyaniline]
IC50: 0.265 nM

CC(=O)N(Cc1ccccc1C)c1ccccc1Oc1ccccc1 [Compound 049]
IC50: 4.23 nM

CCCc1ccccc1CN(C(C)=O)c1ccccc1Oc1ccccc1 [Compound 050, N-Acetyl-N-(2-propylbenzyl)-2-phenoxyaniline]
IC50: 0.215 nM

C=Cc1ccccc1CN(C(C)=O)c1ccccc1Oc1ccccc1 [Compound 051]
IC50: 0.196 nM

CC(=O)N(Cc1ccccc1[N+](=O)[O-])c1ccccc1Oc1ccccc1 [Compound 052, N-acetyl-N-(2-nitrobenzyl)-2-phenoxyaniline]
IC50: 4.64 nM

CC(=O)N(Cc1ccccc1N1CCCC1)c1ccccc1Oc1ccccc1 [Compound 054, N-Acetyl-N-(2-pyrrolidinobenzyl)-2-phenoxyaniline monohydrochloride]
IC50: 1.26 nM

CC(=O)N(Cc1ccc(N(C)C)cc1)c1ccccc1Oc1ccccc1 [Compound 055]
IC50: 1.83 nM

CC(=O)N(Cc1ccccc1)c1ccccc1Oc1ccccc1 [Compound 056]
IC50: 2.92 nM

COc1cccnc1CN(C(C)=O)c1ccccc1Oc1ccccc1 [Compound 060]
IC50: 0.955 nM

COc1ncccc1CN(C(C)=O)c1ccccc1Oc1ccccc1 [Compound 061]
IC50: 0.498 nM

COc1ccncc1CN(C(C)=O)c1ccccc1Oc1ccccc1 [Compound 062]
IC50: 1.05 nM

CCC(=O)N(Cc1ccccc1OC)c1ccccc1Oc1ccccc1 [Compound 064]
IC50: 0.0933 nM

CCOc1ccccc1CN(C(=O)CC)c1ccc(Cl)cc1Oc1ccccc1 [Compound 066]
IC50: 0.925 nM

CCCOc1ccccc1CN(C(=O)CC)c1ccc(Cl)cc1Oc1ccccc1 [Compound 067]
IC50: 1.08 nM

CCCC(=O)N(Cc1ccccc1OC)c1ccccc1Oc1ccccc1 [Compound 071]
IC50: 1.26 nM

COc1ccccc1CN(C(=O)C(C)C)c1ccccc1Oc1ccccc1 [Compound 072]
IC50: 3.51 nM

CCCCC(=O)N(Cc1ccccc1OC)c1ccccc1Oc1ccccc1 [Compound 073]
IC50: 1.52 nM

CCCCCC(=O)N(Cc1ccccc1OC)c1ccccc1Oc1ccccc1 [Compound 075]
IC50: 1.83 nM

COc1ccccc1CN(C(=O)C1CC1)c1ccccc1Oc1ccccc1 [Compound 076]
IC50: 0.955 nM

COc1ccccc1CN(C(=O)C1CCC1)c1ccccc1Oc1ccccc1 [Compound 077]
IC50: 5.59 nM

COc1ccccc1CN(C(=O)c1ccccc1)c1ccccc1Oc1ccccc1 [Compound 079]
IC50: 4.64 nM

COc1ccccc1CN(C(=O)C(F)(F)F)c1ccccc1Oc1ccccc1 [Compound 080]
IC50: 4.64 nM

COc1ccccc1CN(C(=O)CCl)c1ccccc1Oc1ccccc1 [Compound 081, N-chloroacetyl-N-(2-methoxybenzyl)-2-phenoxyaniline]
IC50: 0.343 nM

COc1ccccc1CN(C(=O)COC(C)=O)c1ccccc1Oc1ccccc1 [Compound 082, N-acetoxyacetyl-N-(2-methoxybenzyl)-2-phenoxyaniline]
IC50: 8.9 nM

COc1ccccc1CN(C(=O)CO)c1ccccc1Oc1ccccc1 [Compound 085, N-Hydroxyacetyl-N-(2-methoxybenzyl)-2-phenoxyaniline]
IC50: 3.85 nM

COc1ccccc1CN(C=O)c1ccccc1Oc1ccccc1 [Compound 087]
IC50: 0.572 nM

CCOc1ccccc1CN(C=O)c1ccccc1Oc1ccccc1 [Compound 088]
IC50: 0.163 nM

COc1ccccc1CN(C(N)=O)c1ccccc1Oc1ccccc1 [Compound 089, N-Aminocarbonyl-N-(2-methoxybenzyl)-2-phenoxyaniline]
IC50: 3.51 nM

CNC(=O)N(Cc1ccccc1OC)c1ccccc1Oc1ccccc1 [Compound 090, N-(2-Methoxybenzyl)-N-(N-methylaminocarbonyl)-2-phenoxyaniline]
IC50: 4.64 nM

CCOc1ccccc1CN(C(=O)NC)c1ccccc1Oc1ccccc1 [Compound 091]
IC50: 1.83 nM

CCCOc1ccccc1CN(C(=O)NC)c1ccccc1Oc1ccccc1 [Compound 092]
IC50: 0.722 nM

CNC(=O)N(Cc1ccccc1OC(C)C)c1ccccc1Oc1ccccc1 [Compound 093]
IC50: 0.87 nM

CCCCCOc1ccccc1CN(C(=O)NC)c1ccccc1Oc1ccccc1 [Compound 094]
IC50: 0.925 nM

CNC(=O)N(Cc1cc(OC)ccc1OC)c1ccccc1Oc1ccccc1 [Compound 095, N-(2,5-Dimethoxybenzyl)-N-(N-methylaminocarbonyl)-2-phenoxyaniline]
IC50: 3.77 nM

COC(=O)N(Cc1ccccc1OC)c1ccccc1Oc1ccccc1 [Compound 098, N-(2-Methoxybenzyl)-N-methoxycarbonyl-2-phenoxyaniline]
IC50: 0.498 nM

CCOC(=O)N(Cc1ccccc1OC)c1ccccc1Oc1ccccc1 [Compound 099]
IC50: 0.87 nM

COc1ccccc1CN(C(C)=O)c1ccccc1Oc1ccccc1C [Compound 100]
IC50: 0.112 nM

COc1ccccc1CN(C(C)=O)c1ccccc1Oc1cccc(C)c1 [Compound 101]
IC50: 0.285 nM
